In patent US20030186870A1, “Therapeutic methods and compositions for the treatment of impaired interpersonal and behavioral disorders” (priority 1999, published 2003):
Where no end group is shown, it is not given here.

How the values were obtained:
male rats = settings: cited from earlier work
male Wistar rats = assay: Irwin test; type: in vivo, rat; settings: tail vein injection
Method: An Irwin test was performed on 12 male Wistar rats (Iffa Credo, L'Arbresles, France), weighing 260-280 g. They were housed in groups of 4 in a climate controlled room with a 12h light:dark cycle (light 8:00 PM-8:00 AM) and had access to food and water ad libitum. After a seven day acclimatization period, the rats were weighed, identified and randomly assigned to one of the four treatment groups. The drug was injected to the tail vein of the rats according to the group dose.
Observations were performed 15, 30, 60 and 120 minutes after administration. Among the most noticeable results are the results concerning the awareness state of the rats.

| Molecule | locomotion (male rats; high doses) | anxiolytic-like effect (male rats; low doses) | aggressiveness (male Wistar rats) |
| --- | --- | --- | --- |
| CC[C@H](C)[C@@H]1NC(=O)[C@H](Cc2ccc(O)cc2)NC(=O)[C@@H](N)CSSC[C@@H](C(=O)N2CCC[C@H]2C(=O)N[C@@H](CC(C)C)C(=O)NCC(N)=O)NC(=O)[C@H](CC(N)=O)NC(=O)[C@H](CCC(N)=O)NC1=O [oxytocin] | decrease locomotion | anxiolytic-like effect |  |
| QHNPR [FG-005, Gln-His-Asn-Pro-Arg] |  |  | not associated with an increase of aggressiveness |
